Results from ChEMBL document CHEMBL3507680, “University of Dundee, Gates Library screen for HepG2 cell viability”.

Assay: Human HepG2 cell viability assay in 384 well format
Assay type: toxicity, cell-based
Design: dose 125 nL, time 70.5 hour; cytotoxicity at 70.5 h: concentration not given beside the values
Details: HepG2 cells, read-out: Inhibition

## O=C(C1CCCC1)N1CCO[C@H]2[C@H](OCC3CCOCC3)CC[C@@H]21
  cytotoxicity at 70.5 h: -5.12%

## COCC1c2c(cnn2C)CCN1Cc1ccsc1 (centres undefined)
  cytotoxicity at 70.5 h: -22.9%

## Cn1cc(-c2cnc(N3CCCC3)nc2)cc1C(=O)N1CCOCC1
  cytotoxicity at 70.5 h: -27.4%

## O=C(C1CCOCC1)N1CCO[C@H]2[C@@H](OCC3CC3)CC[C@@H]21
  cytotoxicity at 70.5 h: -6.56%

## Cn1nc(C(=O)NCc2ccccc2C(F)(F)F)c2c1CCS(=O)(=O)C2
  cytotoxicity at 70.5 h: -5.12%

## COc1ccc(CNC(=O)c2nn(C)c3c2CS(=O)(=O)CC3)cc1
  cytotoxicity at 70.5 h: -7.69%

## CCC(C)NC(=O)c1nn(C)c(NC(=O)c2ccccc2OC)c1F (centres undefined)
  cytotoxicity at 70.5 h: -10.8%

## CCC1=NC(SCC(=O)c2ccc(OC)cc2)c2cc(CC)sc2N1 (centres undefined)
  cytotoxicity at 70.5 h: 12.2%

## CCNS(=O)(=O)c1ccc2c(c1)c(=O)n(CC)c(=O)n2CC
  cytotoxicity at 70.5 h: 2%

## Cc1cc2c(cc1NC(N)=O)OCO2
  cytotoxicity at 70.5 h: -4.79%

## Cc1c(S(=O)(=O)N2CCOCC2)cc2c(C)cc(=O)n3c2c1CCC3
  cytotoxicity at 70.5 h: 0.511%

## CN(C)S(=O)(=O)Nc1ccc(Oc2ccc3c(c2)OCO3)cc1
  cytotoxicity at 70.5 h: -5.35%

## COc1ccc(C2=Nn3c(CN)nnc3-c3ccccc3C2)cc1
  cytotoxicity at 70.5 h: -18.7%

## O=C(NCc1cccs1)c1[nH]nc2c1CS(=O)(=O)CC2
  cytotoxicity at 70.5 h: -0.606%

## CCn1nccc1CNc1[nH]cnc2nncc1-2
  cytotoxicity at 70.5 h: -20.2%

## CCn1nccc1CN(C)c1[nH]cnc2nc(C)nc1-2
  cytotoxicity at 70.5 h: -5.53%

## CCn1ncc(Nc2[nH]cnc3nc(C)nc2-3)c1C
  cytotoxicity at 70.5 h: -6.65%

## O=C1CNc2ncnc(N3CCN(Cc4cccc(F)c4)CC3)c2N1
  cytotoxicity at 70.5 h: 17.9%

## O=C1CNc2ncnc(Nc3cnn(Cc4cccc(F)c4)c3)c2N1
  cytotoxicity at 70.5 h: -16.6%

## O=C1CNc2ncnc(N3CCN(c4ccccc4F)CC3)c2N1
  cytotoxicity at 70.5 h: 16.1%

## CCCc1noc(C2CCN(C(=O)C3CCCO3)CC2)n1 (centres undefined)
  cytotoxicity at 70.5 h: -13.7%

## CC(C)c1noc(C2CCN(S(=O)(=O)c3cccs3)CC2)n1
  cytotoxicity at 70.5 h: -0.463%

## CCc1noc(C2CCCCN2C(=O)c2cccs2)n1 (centres undefined)
  cytotoxicity at 70.5 h: -4.33%

## CCc1noc(C2CCCCN2C(=O)c2ccc3c(c2)OCO3)n1 (centres undefined)
  cytotoxicity at 70.5 h: -4.04%

## CCS(=O)(=O)N1CCCCC1c1nc(C(C)C)no1 (centres undefined)
  cytotoxicity at 70.5 h: 7.03%

## Cc1nn(C)c2cnn(CC(=O)NCc3ccc(F)cc3)c12
  cytotoxicity at 70.5 h: 12.4%

## Cc1cnc(N2CC[C@@H]3O[C@@H](COCC(=O)N(C)C)CC[C@@H]32)nc1
  cytotoxicity at 70.5 h: -99.7%

## Cc1cc(C)cc(CN2CCC3(CC2)CC(Nc2ncccn2)CO3)c1 (centres undefined)
  cytotoxicity at 70.5 h: -68.4%

## c1cnc(NC2COC3(CCN(Cc4ccoc4)CC3)C2)nc1 (centres undefined)
  cytotoxicity at 70.5 h: -97.7%

## c1cnc(NCc2nnn3c2CN(Cc2ccco2)CCC3)nc1
  cytotoxicity at 70.5 h: -109%

## Cn1cc(C(=O)NCc2cn3c(n2)CN(C2CCOCC2)CC3)cn1
  cytotoxicity at 70.5 h: -109%

## C1CC(CO[C@@H]2CC[C@H]3[C@H]2OCCN3CC2CCOCC2)CCO1
  cytotoxicity at 70.5 h: -81.4%

## Cc1nc[nH]c1CN1CCC2(CC1)CC(Nc1ncccn1)CO2 (centres undefined)
  cytotoxicity at 70.5 h: -94.8%

## O=C(Nc1cnccn1)[C@@H]1COC[C@H]2CN(C3CCC3)C[C@H]21
  cytotoxicity at 70.5 h: -87.9%

## CCO[C@@H]1CC[C@H]2[C@H]1OCCN2CC1CCOCC1
  cytotoxicity at 70.5 h: 38.8%

## CN(C)C(=O)COC[C@@H]1CC[C@H]2[C@H](CCN2c2ccccn2)O1
  cytotoxicity at 70.5 h: 44.1%

## COCC1CN(Cc2ccoc2)Cc2nn(CC3CC3)cc21 (centres undefined)
  cytotoxicity at 70.5 h: 18.3%

## CCC(C)N1CCC2(CC1)CN(c1cncnc1)C(=O)CO2 (centres undefined)
  cytotoxicity at 70.5 h: -15.3%

## CN(C)C(=O)CC1CC2(CCN(Cc3cccs3)CC2)c2ccccc21 (centres undefined)
  cytotoxicity at 70.5 h: -20%

## CCN1CC2(CC1=O)CN(Cc1cnn(C)c1)CCN(C(=O)N(C)C)C2 (centres undefined)
  cytotoxicity at 70.5 h: 9.62%

## O=C1COC2(CCN(Cc3ccsc3)CC2)CN1
  cytotoxicity at 70.5 h: -4.53%

## c1csc(CN2C[C@@H]3COC[C@]3(COCc3ccncc3)C2)c1
  cytotoxicity at 70.5 h: 28.4%

## Cc1cccc(C(=O)N2C[C@@H](OCc3ccncc3)[C@@H]3OCCC[C@@H]32)n1
  cytotoxicity at 70.5 h: -12.5%

## CN(C)Cc1nnn2c1CN(Cc1cccnc1)CCC2
  cytotoxicity at 70.5 h: -83.6%
